Laboratory results from patent US20260250318A1, “COMPOSITIONS AND METHODS FOR CROSSING THE BLOOD BRAIN BARRIER” (VOYAGER THERAPEUTICS, INC., priority 2022, published 2026).

Assays:
[1] = test system: brains, heart, liver, muscle, and DRG of the NHPs; test: Maturation of TTM-001 and TTM-002 capsids, NGS enrichment in NHP tissues; assay type: in vivo; settings: relative to AAV9 control
How it was run: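 Variants carry mutations within and flanking the loop IV peptide insert: positions 450–466 were triplet-randomized, while positions 449–466 received low-frequency point mutations. The combined pool went into two NHPs, and each peptide was scored by NGS enrichment ratio against AAV9.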

[2] = test system: brain; test: Matured TTM-001 and TTM-002 variants, NGS enrichment in mouse brain; assay type: in vivo, mice; settings: relative to AAV9 control
[3] = NGS fold-enrichment of matured AAV capsid variants, NHP brain, RNA
[4] = NGS fold-enrichment, DRG of NHPs
[5] = NGS fold-enrichment, RNA, brain of NHPs
[6] = NGS fold-enrichment, heart of NHPs
[7] = NGS fold-enrichment, liver DNA of NHPs
[8] = NGS fold-enrichment, liver RNA of NHPs
[9] = NGS fold-enrichment, muscle of NHPs
[10] = NGS fold-enrichment, brain of mice
[11] = NGS fold-enrichment of RNA, NHP brain
[12] = NGS fold-enrichment, NHP liver DNA
[13] = NGS fold-enrichment, NHP liver RNA
[14] = NGS fold-enrichment, NHP muscle
[15] = NGS fold-enrichment, mouse brain

Sequence	Fold Enrichment relative to AAV9, Brain (NHP) [1, 3] [fold]	Fold Enrichment relative to AAV9, DRG (NHP) ([1]; NHP DRG) [fold]	Fold Enrichment relative to AAV9, Heart (NHP) ([1]; NHP heart) [fold]	Fold Enrichment relative to AAV9, Liver DNA (NHP) ([1]; NHP liver, DNA) [fold]	Fold Enrichment relative to AAV9, Liver RNA (NHP) ([1]; NHP liver, RNA) [fold]	Fold Enrichment relative to AAV9, Muscle (NHP) ([1]; NHP muscle) [fold]	Fold Enrichment relative to AAV9, Brain (Mouse) ([2]; mouse brain) [fold]	Fold Enrichment relative to AAV9, DRG (NHP) [1, 4] [fold]	Fold Enrichment relative to AAV9, Brain (NHP) [1, 5] [fold]	Fold Enrichment relative to AAV9, Heart (NHP) [1, 6] [fold]	Fold Enrichment relative to AAV9, Liver DNA (NHP) [1, 7] [fold]	Fold Enrichment relative to AAV9, Liver RNA (NHP) [1, 8] [fold]	Fold Enrichment relative to AAV9, Muscle (NHP) [1, 9] [fold]	Fold Enrichment relative to AAV9, Brain (Mouse) [2, 10] [fold]	Fold Enrichment relative to AAV9, Brain (NHP) [1, 11] [fold]	Fold Enrichment relative to AAV9, DRG (NHP) ([1]; NGS fold-enrichment, NHP DRG) [fold]	Fold Enrichment relative to AAV9, Heart (NHP) ([1]; NGS fold-enrichment, NHP heart) [fold]	Fold Enrichment relative to AAV9, Liver DNA (NHP) [1, 12] [fold]	Fold Enrichment relative to AAV9, Liver RNA (NHP) [1, 13] [fold]	Fold Enrichment relative to AAV9, Muscle (NHP) [1, 14] [fold]	also measured
KTVNGSGSPHSKAQHLQT	55.739	0.091	0.036	0.409	0.062	0.000	62.743														
KTVNGSGSPHSKAQLQQT	58.681	0.315	0.465	0.333	0.529	0.045	81.201														
KTVNGSGSPHSKAQNHLT								0.133	59.239	0.034	0.156	0.000	0.000	70.786							
KTVNGSGSPHSKAQNLQA								0.000	66.379	0.000	0.132	0.000	0.000	50.934							
KTVNGSGSPHSKAQNQLI								0.000	80.509	0.000	0.166	0.000	0.000	71.156	80.509	0.000	0.000	0.166	0.000	0.000	Fold Enrichment relative to AAV9, Brain (Mouse) [2, 15]: 71.156 fold
KTVNGSGSPHSKAQNQWT	56.823	0.000	0.000	0.219	0.000	0.299	69.906														
KTVNGSGSPHSKAQSLQT	55.497	0.000	0.060	0.143	0.000	0.000	69.033														
KTVNGSGSPHSKAQYQHT								0.000	72.847	0.000	0.130	0.000	0.000	54.158							
KTVNGSGSPHSKARDQQT								0.123	124.789	0.039	0.454	0.569	0.312	132.137	124.789	0.123	0.039	0.454	0.569	0.312	Fold Enrichment relative to AAV9, Brain (Mouse) [2, 15]: 132.137 fold
KTVNGSGSPHSKSQNQLT								0.000	101.327	0.035	0.025	0.000	0.000	80.716	101.327	0.000	0.035	0.025	0.000	0.000	Fold Enrichment relative to AAV9, Brain (Mouse) [2, 15]: 80.716 fold
KTVNGSGSPHSKSQNQQT	52.395	0.033	0.077	0.175	0.105	0.013	58.000														
KTVNGSGSPHSKTQSQQT								0.000	115.086	0.726	0.340	0.000	0.000	63.248	115.086	0.000	0.726	0.340	0.000	0.000	Fold Enrichment relative to AAV9, Brain (Mouse) [2, 15]: 63.248 fold
KTVNRNGSPHSKAQNQQT								0.000	133.016	0.416	0.000	0.000	0.000	85.361	133.016	0.000	0.416	0.000	0.000	0.000	Fold Enrichment relative to AAV9, Brain (Mouse) [2, 15]: 85.361 fold
KTVPNSGSPHSKAQNQQT								0.000	62.540	0.000	0.161	0.202	0.011	93.793							
